Results published in ChEMBL document CHEMBL5053549, “Discovery of Potent and Novel Dual PARP/BRD4 Inhibitors for Efficient Treatment of Pancreatic Cancer” (J Med Chem, 2021).
Active and inactive are the calls of the source. The calls are words filed in the database; no cut-off is given here.

Assays:
Mus musculus [1] = experiment: Toxicity in BALB/c mouse xenografted with human SW1990 cells assessed as effect on body weight at 15 mg/kg, ip administered for 28 consecutive days; type: organism-based; settings: in vivo, 672 h, time 28 day
Mus musculus [2] = experiment: Toxicity in BALB/c mouse xenografted with human SW1990 cells assessed as effect on body weight at 15 mg/kg, ip administered for 28 consecutive days in presence of 45 mg/kg Olaparib; type: organism-based; settings: in vivo, 672 h, time 28 day
Mus musculus [3] = experiment: Toxicity in BALB/c mouse xenografted with human SW1990 cells assessed as kidney damage at 15 mg/kg, ip administered for 28 consecutive days by H and E staining based […] microscopic analysis; type: organism-based; settings: in vivo, 672 h, time 28 day
Mus musculus [4] = experiment: Toxicity in BALB/c mouse xenografted with human SW1990 cells assessed as spleen damage at 15 mg/kg, ip administered for 28 consecutive days in presence of 45 mg/kg Olaparib; type: organism-based; settings: in vivo, 672 h, time 28 day
Mus musculus [5] = experiment: Toxicity in BALB/c mouse xenografted with human SW1990 cells assessed as liver damage at 15 mg/kg, ip administered for 28 consecutive days in presence of 45 mg/kg Olaparib; type: organism-based; settings: in vivo, 672 h, time 28 day
Mus musculus [6] = experiment: In vivo inhibition of BRD4 expression in human SW1900 cells xenografted in BALB/c mouse assessed as reversal of Olaparib-induced BRD4 accumulation at 15 mg/kg, ip administered for 28 consecutive days in presence of 45 mg/kg Olaparib by Q-PCR analysis; type: functional, organism-based; settings: time 28.0 day
SW1990 [7] = experiment: Induction of cell cycle arrest in human SW1990 cells assessed as accumulation of cells at G0/G1 phase at 1 uM incubated for 4 days in presence of 3 uM Olaparib by propidium iodide staining based flow cytometry (reference value: 64.79%); type: functional; settings: time 4 day
SW1990 [8] = experiment: Effect on cell cycle progression in human SW1990 cells assessed as reduction in Olaparib-induced CDK6 expression at 1 uM after 4 days in presence of Olaparib by Western blot analysis; type: functional, cell-based; settings: time 4.0 day
SW1990 [9] = experiment: Effect on cell cycle progression in human SW1990 cells assessed as reduction in Olaparib-induced CCND1 expression at 1 uM after 4 days in presence of Olaparib by Western blot analysis; type: functional, cell-based; settings: time 4.0 day
Mus musculus [10] = experiment: Inhibition of homologous recombinant repair in human SW1990 cells xenografted in BALB/c mouse assessed as increase in gammaH2AX expression at 45 mg/kg, ip after 4 days by immunohistochemical analysis; type: functional, organism-based; settings: time 4.0 day
Mus musculus [11] = experiment: Inhibition of homologous recombinant repair in human SW1990 cells xenografted in BALB/c mouse assessed as reduction in Rad51 expression at 45 mg/kg, ip after 4 days by immunohistochemical analysis; type: functional, organism-based; settings: time 4.0 day
[12] = molecular target: Bromodomain-containing protein 3 (Homo sapiens, UniProt Q15059); experiment: Inhibition of recombinant BRD3 BD1 (unknown origin) incubated for 120 mins by TR-FRET assay
Mus musculus [13] = experiment: Inhibition of homologous recombinant repair in human SW1990 cells xenografted in BALB/c mouse assessed as reduction in olaparib-induced Rad51 expression at 15 mg/kg, ip after 4 days by immunohistochemical analysis; type: functional, organism-based; settings: time 4.0 day
[14] = molecular target: T1, Bromodomain testis-specific protein (Homo sapiens, UniProt Q58F21); experiment: Inhibition of recombinant BRDT BD1 (unknown origin) incubated for 120 mins by TR-FRET assay
[15] = molecular target: T1, Bromodomain testis-specific protein; experiment: Inhibition of recombinant BRDT BD2 (unknown origin) incubated for 120 mins by TR-FRET assay
Mus musculus [16] = experiment: Inhibition of homologous recombinant repair in human SW1990 cells xenografted in BALB/c mouse assessed as reduction in olaparib-induced FOXM1 expression at 15 mg/kg, ip after 4 days by immunohistochemical analysis; type: functional, organism-based; settings: time 4.0 day
[17] = molecular target: Bromodomain-containing protein 4 (Homo sapiens, UniProt O60885); experiment: Inhibition of BRD4 expression in human SW1990 cells at 1 uM after 4 days by Western blot analysis; type: cell-based; settings: time 4.0 day
SW1990 [18] = experiment: Antitumor activity against human SW1990 cells xenografted in BALB/c mouse assessed as inhibition of tumor growth at 45 mg/kg, ip administered for 28 consecutive days and measured every 3 days by vernier caliper method; type: functional, organism-based; settings: time 28.0 day
Mus musculus [19] = experiment: Toxicity in BALB/c mouse xenografted with human SW1990 cells assessed as kidney damage at 45 mg/kg, ip administered for 28 consecutive days by H and E staining based […] microscopic analysis; type: organism-based; settings: in vivo, 672 h, time 28 day
Mus musculus [20] = experiment: In vivo inhibition of BRD4 expression in human […] cells xenografted in BALB/c mouse at 45 mg/kg, ip administered for 28 consecutive days by Western blot analysis; type: functional, organism-based; settings: time 28.0 day
SW1990 [21] = experiment: Induction of apoptosis in human SW1990 cells assessed as late apoptotic cells at 1 uM after 4 days by Annexin V-FITC and propidium iodide staining based flow cytometry (reference value: 6.22%); type: functional; settings: time 4 day
SW1990 [22] = experiment: Induction of cell cycle arrest in human SW1990 cells assessed as accumulation of cells at S phase at 1 uM incubated for 4 days by propidium iodide staining based flow cytometry (reference value: 29.32%); type: functional; settings: time 4 day
SW1990 [23] = experiment: Induction of cell cycle arrest in human SW1990 cells assessed as accumulation of cells at S phase at 2 uM incubated for 4 days by propidium iodide staining based flow cytometry (reference value: 29.32%); type: functional; settings: time 4 day
SW1990 [24] = experiment: Induction of cell cycle arrest in human SW1990 cells assessed as accumulation of cells at G2/M phase at 2 uM incubated for 4 days by propidium iodide staining based flow cytometry (reference value: 5.89%); type: functional; settings: time 4 day
SW1990 [25] = experiment: Effect on cell cycle progression in human SW1990 cells assessed as reduction in E2F2 expression at 1 to 2 uM after 4 days by Western blot analysis; type: functional, cell-based; settings: dose 1-2 µM, time 4.0 day
Mus musculus [26] = experiment: Effect on cell cycle progression in human SW1990 cells xenografted in BALB/c mouse assessed as reduction in E2F2 expression at 45 mg/kg, ip after 4 days by Western blot analysis; type: functional, organism-based; settings: time 4.0 day
SW1990 [27] = experiment: Inhibition of homologous recombinant repair in human SW1990 cells assessed as reduction in FOXM1 expression at 1 to 2 uM after 4 days by Q-PCR analysis; type: functional, cell-based; settings: dose 1-2 µM, time 4.0 day
SW1990 [28] = experiment: Inhibition of homologous recombinant repair in human SW1990 cells assessed as reduction in BRCA1 expression at 1 to 2 uM after 4 days by Q-PCR analysis; type: functional, cell-based; settings: dose 1-2 µM, time 4.0 day
SW1990 [29] = experiment: Inhibition of homologous recombinant repair in human SW1990 cells assessed as reduction in BRCA1 expression at 1 to 2 uM after 4 days by Western blot analysis; type: functional, cell-based; settings: dose 1-2 µM, time 4.0 day
SW1990 [30] = experiment: Inhibition of homologous recombinant repair in human SW1990 cells assessed as reduction in Rad51 expression at 1 to 2 uM after 4 days by Q-PCR analysis; type: functional, cell-based; settings: dose 1-2 µM, time 4.0 day
SW1990 [31] = experiment: Inhibition of homologous recombinant repair in human SW1990 cells assessed as increase in […] expression at 1 to 2 uM after 4 days by Western blot analysis; type: functional, cell-based; settings: dose 1-2 µM, time 4.0 day
SW1990 [32] = experiment: Induction of autophagy in human SW1990 cells xenografted in BALB/c mouse assessed as increase in ATG5 expression at 45 mg/kg, ip after 4 days by Q-PCR analysis; type: functional, organism-based; settings: time 4.0 day
SW1990 [33] = experiment: Induction of autophagy in human SW1990 cells xenografted in BALB/c mouse assessed as increase in beclin1 expression at 45 mg/kg, ip after 4 days by Western blot analysis; type: functional, organism-based; settings: time 4.0 day

Sequence of Bromodomain-containing protein 3 (Q15059 whole entry): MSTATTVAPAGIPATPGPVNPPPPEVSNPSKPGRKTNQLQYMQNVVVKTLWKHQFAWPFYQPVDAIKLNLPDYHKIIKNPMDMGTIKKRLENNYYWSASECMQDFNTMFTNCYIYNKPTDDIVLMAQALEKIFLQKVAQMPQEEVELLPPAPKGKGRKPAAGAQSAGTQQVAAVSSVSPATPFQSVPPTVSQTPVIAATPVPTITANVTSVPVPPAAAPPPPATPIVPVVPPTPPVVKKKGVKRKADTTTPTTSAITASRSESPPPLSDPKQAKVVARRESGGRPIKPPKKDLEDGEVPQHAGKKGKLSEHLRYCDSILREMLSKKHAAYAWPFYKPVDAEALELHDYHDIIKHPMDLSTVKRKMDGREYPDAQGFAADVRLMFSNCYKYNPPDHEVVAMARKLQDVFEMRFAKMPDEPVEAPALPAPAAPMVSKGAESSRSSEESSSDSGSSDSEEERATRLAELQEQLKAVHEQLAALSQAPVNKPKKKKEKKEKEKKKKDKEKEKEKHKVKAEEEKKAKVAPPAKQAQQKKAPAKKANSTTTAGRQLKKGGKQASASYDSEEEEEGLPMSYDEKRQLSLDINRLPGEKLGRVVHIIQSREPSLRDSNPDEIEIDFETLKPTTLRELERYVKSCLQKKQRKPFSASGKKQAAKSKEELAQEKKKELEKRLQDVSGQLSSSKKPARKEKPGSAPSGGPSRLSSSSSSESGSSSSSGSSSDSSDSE

Cc1sc2c(c1C)C(c1ccc(Cl)cc1)=N[C@@H](CC(=O)OC(C)(C)C)c1nnc(C)n1-2
Activity (Mus musculus [1]): Non-Toxic
Activity (Mus musculus [2]): Non-Toxic
Activity (Mus musculus [3]): Non-Toxic
Activity (Mus musculus [4]): Non-Toxic
Activity (Mus musculus [5]): Non-Toxic
Activity (Mus musculus [6]): Active
Activity (SW1990 [7]): 71.53%
Activity (SW1990 [8]): Active
Activity (SW1990 [9]): Active

CC[C@@H]1C(=O)N(C)c2cnc(N(C)c3ccc(-c4nc5c(C(N)=O)cccc5[nH]4)cc3OC)nc2N1C1CCCC1
inhibition (Mus musculus [10]): Active
inhibition (Mus musculus [11]): Active
IC50 [12]: 166 nM
inhibition (Mus musculus [13]): Active
IC50 [14]: 1200 nM
IC50 [15]: 1400 nM
inhibition (Mus musculus [16]): Active
inhibition [17]: Active
Activity (SW1990 [18]): Active
Activity (Mus musculus [19]): Non-Toxic
Activity (Mus musculus [20]): Active
Activity (SW1990 [21]): 28.4%
Activity (SW1990 [22]): 14.74%
Activity (SW1990 [23]): 9.21%
Activity (SW1990 [24]): 13.22%
Activity (SW1990 [25]): Active
Activity (Mus musculus [26]): Active
inhibition (SW1990 [27]): Active
inhibition (SW1990 [28]): Active
inhibition (SW1990 [29]): Active
inhibition (SW1990 [30]): Active
inhibition (SW1990 [31]): Active
Activity (SW1990 [32]): Active
Activity (SW1990 [33]): Active
